From patent US20230113037A1 (Bayer Aktiengesellschaft, priority 2019, published 2023)
Like-named read-outs stand apart in the source and are kept apart here.

Legend:
[1] = target: T1, AHR (Homo sapiens, UniProt P35869); assay: In vitro assay 1: antagonism in human cell line (AHR transactivation, firefly luciferase reporter, kynurenic acid prestimulated); assay type: cell-based; settings: AHR Antagonism Human IC50 [M]
T1 construct: U87 MG glioblastoma cells (ATCC #HTB-14) endogenously expressing AHR; endogenous in cells; host or cells: U87 MG glioblastoma cells (ATCC #HTB-14)
T1 sequence (P35869 11-848): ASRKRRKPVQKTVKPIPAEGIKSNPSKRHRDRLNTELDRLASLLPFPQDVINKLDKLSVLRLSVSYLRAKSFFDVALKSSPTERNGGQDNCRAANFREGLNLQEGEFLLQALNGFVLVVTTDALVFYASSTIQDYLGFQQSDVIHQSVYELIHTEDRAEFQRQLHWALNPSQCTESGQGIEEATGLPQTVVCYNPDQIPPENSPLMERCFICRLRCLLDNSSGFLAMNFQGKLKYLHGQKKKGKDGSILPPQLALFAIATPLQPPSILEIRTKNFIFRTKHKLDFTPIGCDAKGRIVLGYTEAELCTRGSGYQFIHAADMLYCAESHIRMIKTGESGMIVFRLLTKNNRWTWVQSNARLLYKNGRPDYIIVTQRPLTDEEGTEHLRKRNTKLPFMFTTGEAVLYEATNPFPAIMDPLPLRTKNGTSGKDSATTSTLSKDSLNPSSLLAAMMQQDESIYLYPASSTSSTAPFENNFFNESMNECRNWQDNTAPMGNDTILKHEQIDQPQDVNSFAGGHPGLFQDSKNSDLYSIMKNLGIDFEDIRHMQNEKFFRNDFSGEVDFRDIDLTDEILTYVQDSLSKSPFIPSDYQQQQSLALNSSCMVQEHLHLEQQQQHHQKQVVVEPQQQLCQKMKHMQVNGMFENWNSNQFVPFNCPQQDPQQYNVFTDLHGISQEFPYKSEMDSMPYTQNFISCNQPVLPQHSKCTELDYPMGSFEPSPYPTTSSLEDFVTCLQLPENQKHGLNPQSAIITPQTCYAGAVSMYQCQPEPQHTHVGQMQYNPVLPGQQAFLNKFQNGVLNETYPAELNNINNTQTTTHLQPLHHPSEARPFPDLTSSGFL
Outline: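 Antagonism is measured against kynurenic acid prestimulation in U87 MG glioblastoma cells carrying stable DRE-luciferase and Renilla reporters. Positive inhibition control: 150 μM kynurenic acid with 5 μM staurosporine. Values are normalized to controls; repeats are averaged or given as medians.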

[2] = target: T2, AHR (Mus musculus, UniProt P30561); assay: In vitro assay 3: antagonism in mouse cell line (AHR transactivation, firefly luciferase reporter, kynurenic acid prestimulated); assay type: cell-based
T2 sequence (P30561 1-848 P471L/N533S/M589L): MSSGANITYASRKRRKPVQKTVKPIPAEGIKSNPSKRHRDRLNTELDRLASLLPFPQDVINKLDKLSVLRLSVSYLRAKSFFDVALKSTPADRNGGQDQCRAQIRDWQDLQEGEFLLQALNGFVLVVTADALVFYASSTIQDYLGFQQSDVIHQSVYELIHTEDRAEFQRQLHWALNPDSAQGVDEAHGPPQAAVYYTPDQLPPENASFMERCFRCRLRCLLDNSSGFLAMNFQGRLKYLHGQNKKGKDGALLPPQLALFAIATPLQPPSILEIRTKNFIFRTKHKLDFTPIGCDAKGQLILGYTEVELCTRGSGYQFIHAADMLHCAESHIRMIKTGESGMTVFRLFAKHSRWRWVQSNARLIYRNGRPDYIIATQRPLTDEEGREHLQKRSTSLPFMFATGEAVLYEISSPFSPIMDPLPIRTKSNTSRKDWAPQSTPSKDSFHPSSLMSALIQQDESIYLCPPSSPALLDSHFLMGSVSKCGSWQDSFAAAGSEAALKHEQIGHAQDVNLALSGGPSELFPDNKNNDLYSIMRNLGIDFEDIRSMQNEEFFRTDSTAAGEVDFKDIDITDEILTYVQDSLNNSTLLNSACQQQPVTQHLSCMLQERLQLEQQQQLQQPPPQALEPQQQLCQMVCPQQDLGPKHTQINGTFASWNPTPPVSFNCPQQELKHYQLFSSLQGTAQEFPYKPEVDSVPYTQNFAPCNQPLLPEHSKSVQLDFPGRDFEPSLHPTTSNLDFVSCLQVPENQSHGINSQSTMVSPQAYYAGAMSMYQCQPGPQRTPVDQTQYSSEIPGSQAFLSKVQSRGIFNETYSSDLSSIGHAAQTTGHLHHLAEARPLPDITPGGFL
Outline: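 Antagonism read as reduced firefly luciferase signal (SteadyGlo) from a stably transfected AHR/DRE reporter in a mouse line prestimulated with kynurenic acid. Data normalized to controls, the full-inhibition control being cells without kynurenic acid; multiple determinations given as average or median values.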

[3] = mouse Hepa 1c1c7 cells, 200 μM kynurenic acid, 20 hours, read-out: AHR Antagonism Mouse IC50
[4] = Hepa 1c1c7 cells, 200 μM kynurenic acid, 20 hours, firefly luciferase reporter, read-out: AHR Antagonism Mouse IC50
[5] = read-out: AHR Antagonism Mouse IC50, mouse Hepa 1c1c7 cells, 200 μM kynurenic acid, 20 hours

Row | SMILES | IC50 [1] [M] | IC50 [2, 3] [nM] | other results
1 | NC(=O)[C@@H](CO)Nc1nc2ccccc2c2nc(-c3ccccc3)nn12 [Example 2, N^2-(2-phenyl[1,2,4]triazolo[1,5-c]quinazolin-5-yl)-D-serinamide] | 2.4e-08 | 68.6 | 
2 | COc1ccccc1-c1nc2c3ccccc3nc(N[C@H]3CCCCNC3=O)n2n1 [Example 60, (3S)-3-{[2-(2-methoxyphenyl)[1,2,4]triazolo[1,5-c]quinazolin-5-yl]amino}azepan-2-one] | > 2e-05 | 131 | 
3 | CC(C)n1cc(-c2nc3c4cccc(Cl)c4nc(N[C@@H]4CCCCNC4=O)n3n2)cn1 [Example 817, (3R)-3-({7-chloro-2-[1-(propan-2-yl)-1H-pyrazol-4-yl][1,2,4]triazolo[1,5-c]quinazolin-5-yl}amino)azepan-2-one] |  |  | IC50 ([1]; firefly luciferase reporter): 5.24e-10 M; IC50 [2, 4]: 1.94 nM
4 | O=C1NCCCC[C@H]1Nc1nc2ccccc2c2nc(-c3nc(C4CC4)no3)nn12 [Example 135, (3R)-3-{[2-(3-cyclopropyl-1,2,4-oxadiazol-5-yl)[1,2,4]triazolo[1,5-c]quinazolin-5-yl]amino}azepan-2-one] | 2.77e-08 | 20.5 | 
5 | CC(C)[C@@H](Nc1nc2c(Br)cccc2c2nc(-c3cnn(C)c3)nn12)C(=O)NCCN1CCN(C)CC1 [Example 927, N^2-[7-bromo-2-(1-methyl-1H-pyrazol-4-yl)[1,2,4]triazolo[1,5-c]quinazolin-5-yl]-N-[2-(4-methylpiperazin-1-yl)ethyl]-D-valinamide] |  |  | IC50 ([1]; firefly luciferase reporter): 6.5e-08 M; IC50 [2, 4]: 34.4 nM
6 | Cc1cccc(-c2nc3c4ccccc4nc(N[C@@H]4CCCCNC4=O)n3n2)c1 [Example 53, (3R)-3-{[2-(3-methylphenyl)[1,2,4]triazolo[1,5-c]quinazolin-5-yl]amino}azepan-2-one] | 1.16e-08 | 5.28 | 
7 | N#Cc1cccc2c1nc(N[C@@H]1CNCCNC1=O)n1nc(-c3cnn(C(F)F)c3)nc21 [Example 934, 2-[1-(difluoromethyl)-1H-pyrazol-4-yl]-5-{[(6R)-5-oxo-1,4-diazepan-6-yl]amino}[1,2,4]triazolo[1,5-c]quinazoline-7-carbonitrile] |  |  | IC50 ([1]; firefly luciferase reporter): 2.39e-07 M; IC50 ([2]; read-out: AHR Antagonism Mouse IC50, Hepa 1c1c7 cells, 200 μM kynurenic acid, 20 hours, firefly luciferase reporter): 116 nM
8 | Cc1ccccc1-c1nc2c3ccccc3nc(N[C@@H]3CCCCNC3=O)n2n1 [Example 42, (3R)-3-{[2-(2-methylphenyl)[1,2,4]triazolo[1,5-c]quinazolin-5-yl]amino}azepan-2-one] | 3.03e-10 |  | IC50 [2, 5]: 0.158 nM
9 | Cn1cc(-c2nc3c4cc(F)ccc4nc(N[C@@H]4CCCCNC4=O)n3n2)cn1 [Example 232, (3R)-3-{[9-fluoro-2-(1-methyl-1H-pyrazol-4-yl)[1,2,4]triazolo[1,5-c]quinazolin-5-yl]amino}azepan-2-one] | 8.83e-09 |  | IC50 [2, 5]: 3.88 nM
10 | O=C1NCCCC[C@H]1Nc1nc2c(Br)cc(Br)cc2c2nc(-c3cccc(F)c3)nn12 [Example 592, (3R)-3-{[7,9-dibromo-2-(3-fluorophenyl)[1,2,4]triazolo[1,5-c]quinazolin-5-yl]amino}azepan-2-one] | 5.21e-07 | > 20000 | 
11 | CC[C@@H](Nc1nc2ccccc2c2nc(-c3ccncc3F)nn12)C(N)=O [Example 484, (2R)-2-{[2-(3-fluoropyridin-4-yl)[1,2,4]triazolo[1,5-c]quinazolin-5-yl]amino}butanamide] | 9.06e-08 | 27.6 | 
12 | COc1ccc(-c2nc3c4ccc(F)cc4nc(N[C@@H]4CCCCNC4=O)n3n2)cc1 [Example 153, (3R)-3-{[8-fluoro-2-(4-methoxyphenyl)[1,2,4]triazolo[1,5-c]quinazolin-5-yl]amino}azepan-2-one] | 4.35e-10 | 1.18 | 
13 | C[C@@H](Nc1nc2c(Br)cccc2c2nc(-c3cnn(C)c3)nn12)C(=O)N1CCN(C)CC1 [Example 786, (2R)-2-{[7-bromo-2-(1-methyl-1H-pyrazol-4-yl)[1,2,4]triazolo[1,5-c]quinazolin-5-yl]amino}-1-(4-methylpiperazin-1-yl)propan-1-one] |  |  | IC50 ([1]; firefly luciferase reporter): 2.2e-08 M; IC50 [2, 4]: 22.1 nM
14 | COc1ccc(-c2nc3c4cccc(SC(C)C)c4nc(N[C@@H]4CCCCNC4=O)n3n2)cc1 [Example 767, (3R)-3-({2-(4-methoxyphenyl)-7-[(propan-2-yl)sulfanyl][1,2,4]triazolo[1,5-c]quinazolin-5-yl}amino)azepan-2-one] | 2.69e-08 | 47.6 | 

Further lines, with some results ahead:

Row | IC50 [1] [M] | IC50 [2, 3] [nM] | SMILES | other results
15 | 6.02e-08 | 56.1 | COc1cccc(-c2nc3c4ccccc4nc(NC4CCNC4=O)n3n2)c1 (single isomer, unassigned) [Example 120, 3-{[2-(3-methoxyphenyl)[1,2,4]triazolo[1,5-c]quinazolin-5-yl]amino}pyrrolidin-2-one] | 
16 | 3.28e-08 | 12.4 | CCC[C@@H](Nc1nc2ccccc2c2nc(-c3ccc(S(C)(=O)=O)cc3)nn12)C(=O)NC [Example 377, N^2-{2-[4-(methanesulfonyl)phenyl][1,2,4]triazolo[1,5-c]quinazolin-5-yl}-N-methyl-D-norvalinamide] | 
17 | 1.02e-08 | 0.672 | N#Cc1cccc(-c2nc3c4ccccc4nc(NC4CCCCCNC4=O)n3n2)c1 (stereo not shown) [Example 443, 3-(5-{[2-oxoazocan-3-yl]amino}[1,2,4]triazolo[1,5-c]quinazolin-2-yl)benzonitrile] | 
18 | 2.84e-08 | 83.2 | COc1cccc(-c2nc3c4cccc(C)c4nc(N[C@H]4CCCCNC4=O)n3n2)c1 [Example 141] | 
19 | 3.59e-07 | 460 | O=C1NCCCC[C@H]1Nc1nc2ccccc2c2nc(-c3cn[nH]c3)nn12 [Example 69, (3R)-3-{[2-(1H-pyrazol-4-yl)[1,2,4]triazolo[1,5-c]quinazolin-5-yl]amino}azepan-2-one] | 
20 | 2.32e-08 | 5.98 | Cc1cncc(-c2nc3c4ccccc4nc(N[C@@H]4CCCCNC4=O)n3n2)c1 [Example 636, (3R)-3-{[2-(5-methylpyridin-3-yl)[1,2,4]triazolo[1,5-c]quinazolin-5-yl]amino}azepan-2-one] | 
21 | 1.09e-09 | 1.08 | COc1cccc(-c2nc3c4cccc(C)c4nc(N[C@@H]4CCCCNC4=O)n3n2)c1 [Example 140, (3R)-3-{[2-(3-methoxyphenyl)-7-methyl[1,2,4]triazolo[1,5-c]quinazolin-5-yl]amino}azepan-2-one] | 
22 | 1.76e-08 | 26.7 | N#Cc1ccc(-c2nc3c4ccccc4nc(N[C@@H]4CCCNC4=O)n3n2)cc1 [Example 389, 4-(5-{[(3R)-2-oxopiperidin-3-yl]amino}[1,2,4]triazolo[1,5-c]quinazolin-2-yl)benzonitrile] | 
23 | 3.65e-07 | 1870 | COc1cccc(-c2nc3c4ccccc4nc(NC4CCN(C)C4=O)n3n2)c1 (single isomer, unassigned) [Example 123, 3-{[2-(3-methoxyphenyl)[1,2,4]triazolo[1,5-c]quinazolin-5-yl]amino}-1-methylpyrrolidin-2-one] | 
